Measurements published in the NIST ThermoML archive (doi:10.1016/j.tca.2015.06.017).

Assay: xn = mol fraction of the nth substance listed
Settings: 283.15 K, Liquid, Vibrating tube method

CCCCCl [1-chlorobutane] + CCCCCCC
mass density [kg/m3]
Settings | 100 kPa | 2000 kPa | 5000 kPa | 7000 kPa | 10000 kPa | 20000 kPa | 30000 kPa | 40000 kPa | 50000 kPa
x2 = 0.0508 | 882.75 | 884.62 | 887.46 | 889.28 | 891.99 | 900.53 | 908.4 | 915.72 | 922.47
x2 = 0.0994 | 869.33 | 871.23 | 874.03 | 875.85 | 878.55 | 887.08 | 894.89 | 902.19 | 908.9
x2 = 0.2013 | 842.84 | 844.73 | 847.53 | 849.37 | 852.02 | 860.48 | 868.22 | 875.41 | –
x2 = 0.3015 | 818.82 | 820.72 | 823.49 | 825.31 | 827.93 | 836.34 | 843.95 | 851.07 | –
x2 = 0.4008 | 796.7 | 798.63 | 801.35 | 803.16 | 805.75 | 814.1 | 821.67 | 828.73 | –
x2 = 0.5026 | 775.72 | 777.65 | 780.38 | 782.19 | 784.72 | 793.03 | 800.5 | 807.4 | –
x2 = 0.6012 | 756.89 | 758.81 | 761.44 | 763.28 | 765.77 | 773.97 | 781.4 | 788.26 | –
x2 = 0.7003 | 739.21 | 741.14 | 743.76 | 745.54 | 748.04 | 756.2 | 763.51 | 770.26 | –
x2 = 0.7995 | 722.69 | 724.62 | 727.26 | 729.04 | 731.51 | 739.54 | 746.78 | 753.48 | –
x2 = 0.9011 | 706.94 | 708.86 | 711.45 | 713.2 | 715.65 | 723.61 | 730.75 | 737.36 | –
x2 = 0.9494 | 699.8 | 701.72 | 704.3 | 706.05 | 708.47 | 716.4 | 723.48 | 730.05 | –
